Experimental data reported in patent publication US10239869B2, “Sulfonamide compounds as voltage-gated sodium channel modulators” (LUPIN LIMITED, priority 2015, dated 2019).
Read-outs that look alike come from different tables or passages of the source.

Tests used:
[1] = target: Nav 1.7 (Homo sapiens (Human), UniProt Q15858); experiment: Inhibition of sodium channels, Red Membrane Potential Dye FLIPR assay, veratridine depolarization; assay type: cell-based; conditions: HEK-293 cells overexpressing the channel; for IC50: read-out: Nav1.7 IC50
[2] = target: Nav 1.5 (Homo sapiens (Human), UniProt Q14524); experiment: as above; assay type: cell-based; conditions: HEK-293 cells overexpressing the channel; for inhibition at 10 µM: HEK-293 cells overexpressing Nav 1.5
[3] = read-out: Nav1.5 IC50 (bound given in μM)

Nav 1.5, sequence (Q14524 whole entry): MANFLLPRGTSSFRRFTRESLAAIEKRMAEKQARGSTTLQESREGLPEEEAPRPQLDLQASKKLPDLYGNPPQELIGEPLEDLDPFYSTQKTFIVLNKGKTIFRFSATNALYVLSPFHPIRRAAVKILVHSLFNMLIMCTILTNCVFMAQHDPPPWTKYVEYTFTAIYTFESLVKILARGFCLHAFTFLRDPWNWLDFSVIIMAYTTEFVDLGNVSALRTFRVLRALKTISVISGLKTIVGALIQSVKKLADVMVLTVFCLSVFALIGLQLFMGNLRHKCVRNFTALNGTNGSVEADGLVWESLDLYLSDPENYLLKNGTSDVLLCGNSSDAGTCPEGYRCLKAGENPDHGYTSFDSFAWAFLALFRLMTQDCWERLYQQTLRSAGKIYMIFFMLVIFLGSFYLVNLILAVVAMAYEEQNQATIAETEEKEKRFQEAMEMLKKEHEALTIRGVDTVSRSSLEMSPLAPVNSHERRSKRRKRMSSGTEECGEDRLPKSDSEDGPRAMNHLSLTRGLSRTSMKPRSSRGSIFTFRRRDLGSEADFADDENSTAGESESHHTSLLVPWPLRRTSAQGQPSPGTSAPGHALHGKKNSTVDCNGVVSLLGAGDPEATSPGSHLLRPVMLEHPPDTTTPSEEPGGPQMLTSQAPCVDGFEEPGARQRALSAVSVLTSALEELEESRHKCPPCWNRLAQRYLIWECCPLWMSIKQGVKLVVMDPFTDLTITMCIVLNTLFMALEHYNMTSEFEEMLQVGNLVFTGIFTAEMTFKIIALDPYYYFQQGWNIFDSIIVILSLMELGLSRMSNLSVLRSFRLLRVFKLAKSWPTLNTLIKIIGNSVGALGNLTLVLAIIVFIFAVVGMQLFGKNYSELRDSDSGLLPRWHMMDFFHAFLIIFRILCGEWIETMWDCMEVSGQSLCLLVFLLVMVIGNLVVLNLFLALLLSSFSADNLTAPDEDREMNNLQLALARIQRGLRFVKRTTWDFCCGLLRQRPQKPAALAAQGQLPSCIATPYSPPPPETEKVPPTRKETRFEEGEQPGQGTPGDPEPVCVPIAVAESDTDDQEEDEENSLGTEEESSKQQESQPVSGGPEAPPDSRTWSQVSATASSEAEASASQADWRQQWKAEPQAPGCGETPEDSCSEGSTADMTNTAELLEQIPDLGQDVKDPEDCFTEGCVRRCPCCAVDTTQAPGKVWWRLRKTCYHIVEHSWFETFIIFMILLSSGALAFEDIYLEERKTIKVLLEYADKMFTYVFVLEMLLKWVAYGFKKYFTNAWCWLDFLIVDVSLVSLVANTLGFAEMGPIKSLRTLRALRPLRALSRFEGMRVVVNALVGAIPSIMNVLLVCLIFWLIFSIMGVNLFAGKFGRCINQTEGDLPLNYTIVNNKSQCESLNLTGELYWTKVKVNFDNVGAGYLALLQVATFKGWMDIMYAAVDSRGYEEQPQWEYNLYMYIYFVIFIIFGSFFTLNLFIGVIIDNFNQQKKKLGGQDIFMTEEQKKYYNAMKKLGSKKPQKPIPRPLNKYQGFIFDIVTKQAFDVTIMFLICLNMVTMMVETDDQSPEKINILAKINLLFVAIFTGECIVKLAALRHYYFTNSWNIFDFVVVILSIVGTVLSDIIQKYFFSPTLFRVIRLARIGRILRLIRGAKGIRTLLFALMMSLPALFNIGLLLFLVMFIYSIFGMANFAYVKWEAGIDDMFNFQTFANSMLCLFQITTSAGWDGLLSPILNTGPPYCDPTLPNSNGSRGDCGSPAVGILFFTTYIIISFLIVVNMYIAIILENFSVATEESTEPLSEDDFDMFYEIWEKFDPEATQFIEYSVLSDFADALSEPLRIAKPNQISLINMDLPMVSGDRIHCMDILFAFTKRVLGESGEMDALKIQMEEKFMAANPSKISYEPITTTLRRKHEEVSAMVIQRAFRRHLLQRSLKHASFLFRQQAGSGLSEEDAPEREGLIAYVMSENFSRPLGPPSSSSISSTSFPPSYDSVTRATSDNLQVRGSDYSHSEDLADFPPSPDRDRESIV
Nav 1.7, sequence (Q15858 whole entry): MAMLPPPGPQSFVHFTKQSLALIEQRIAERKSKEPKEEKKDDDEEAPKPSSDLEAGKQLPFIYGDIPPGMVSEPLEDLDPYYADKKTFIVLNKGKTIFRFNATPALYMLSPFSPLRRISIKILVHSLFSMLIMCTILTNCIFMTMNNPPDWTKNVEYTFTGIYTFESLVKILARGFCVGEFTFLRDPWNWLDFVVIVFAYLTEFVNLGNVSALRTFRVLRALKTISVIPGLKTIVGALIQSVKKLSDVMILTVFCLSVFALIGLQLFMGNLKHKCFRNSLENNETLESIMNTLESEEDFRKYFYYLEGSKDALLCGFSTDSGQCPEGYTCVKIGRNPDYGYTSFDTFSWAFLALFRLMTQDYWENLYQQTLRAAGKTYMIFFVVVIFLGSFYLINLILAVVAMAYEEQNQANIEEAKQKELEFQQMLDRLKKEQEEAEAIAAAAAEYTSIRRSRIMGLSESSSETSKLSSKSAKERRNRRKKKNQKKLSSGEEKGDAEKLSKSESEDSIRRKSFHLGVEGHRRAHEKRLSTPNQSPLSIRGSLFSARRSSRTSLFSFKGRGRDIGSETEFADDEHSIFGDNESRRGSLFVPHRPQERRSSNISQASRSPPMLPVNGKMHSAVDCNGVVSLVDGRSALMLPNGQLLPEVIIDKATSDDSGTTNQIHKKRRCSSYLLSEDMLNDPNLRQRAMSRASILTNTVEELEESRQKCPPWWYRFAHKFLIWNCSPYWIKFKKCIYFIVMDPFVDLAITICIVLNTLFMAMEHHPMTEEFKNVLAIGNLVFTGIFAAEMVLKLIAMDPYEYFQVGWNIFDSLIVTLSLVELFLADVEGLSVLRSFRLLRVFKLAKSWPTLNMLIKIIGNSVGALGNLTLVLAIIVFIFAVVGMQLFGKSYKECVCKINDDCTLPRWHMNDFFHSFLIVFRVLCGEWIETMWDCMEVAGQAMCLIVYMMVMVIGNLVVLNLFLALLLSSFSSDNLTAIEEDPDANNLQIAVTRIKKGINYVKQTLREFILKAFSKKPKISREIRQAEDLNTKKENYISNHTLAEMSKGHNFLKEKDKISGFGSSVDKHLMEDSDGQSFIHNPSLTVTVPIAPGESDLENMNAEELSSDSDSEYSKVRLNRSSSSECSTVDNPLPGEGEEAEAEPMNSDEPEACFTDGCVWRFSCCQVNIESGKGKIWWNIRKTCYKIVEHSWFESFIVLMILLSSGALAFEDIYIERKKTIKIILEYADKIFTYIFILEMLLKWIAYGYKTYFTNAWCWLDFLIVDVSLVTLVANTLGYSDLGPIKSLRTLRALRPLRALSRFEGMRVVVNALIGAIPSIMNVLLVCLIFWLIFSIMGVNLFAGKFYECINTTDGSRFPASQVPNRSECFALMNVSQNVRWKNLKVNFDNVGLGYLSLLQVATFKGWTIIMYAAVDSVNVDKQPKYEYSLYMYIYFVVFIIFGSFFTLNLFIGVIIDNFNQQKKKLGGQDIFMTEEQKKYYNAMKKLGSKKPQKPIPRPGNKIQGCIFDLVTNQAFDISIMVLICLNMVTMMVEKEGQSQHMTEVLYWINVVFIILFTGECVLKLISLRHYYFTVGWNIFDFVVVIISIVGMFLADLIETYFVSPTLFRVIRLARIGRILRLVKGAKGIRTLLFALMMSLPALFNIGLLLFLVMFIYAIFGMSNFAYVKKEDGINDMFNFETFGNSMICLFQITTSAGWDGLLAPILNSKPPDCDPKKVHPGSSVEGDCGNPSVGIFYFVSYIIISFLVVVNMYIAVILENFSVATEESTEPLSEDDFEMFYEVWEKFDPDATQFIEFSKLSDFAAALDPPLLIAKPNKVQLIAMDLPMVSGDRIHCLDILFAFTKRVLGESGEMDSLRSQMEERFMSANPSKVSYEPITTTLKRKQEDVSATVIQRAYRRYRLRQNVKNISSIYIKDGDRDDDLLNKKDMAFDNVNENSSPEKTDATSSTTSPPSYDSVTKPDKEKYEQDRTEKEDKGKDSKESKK

| SMILES | IC50 [1] | IC50 [2, 3] | other results |
| --- | --- | --- | --- |
| O=S(=O)(Nc1cccc(F)n1)c1ccc2c(c1)OCC[C@@H]2c1ccc(C(F)(F)F)cc1OC1COC1 (racemic) [Example-219, (S/R)—N-(6-fluoropyridin-2-yl)-4-(2-(oxetan-3-yloxy)-4-(trifluoromethyl)phenyl)chromane-7-sulfonamide] | 34 nM |  | inhibition at 10 µM [2]: 40% |
| O=C1OCCN1c1cc(C(F)(F)F)ccc1[C@H]1CCOc2cc(S(=O)(=O)Nc3cccc(F)n3)ccc21 (racemic) [Example-210, (R/S)—N-(6-fluoropyridin-2-yl)-4-(2-(2-oxooxazolidin-3-yl)-4-(trifluoromethyl)phenyl)chromane-7-sulfonamide] | 48 nM | > 10 µM |  |
| COc1cc(C(F)(F)F)ccc1[C@@H]1CCOc2cc(S(=O)(=O)Nc3ncccn3)ccc21 [Example-226, (S&R)-4-(2-methoxy-4-(trifluoromethyl)phenyl)-N-(pyrimidin-2-yl)chroman-7-sulfonamide] | 2350 nM |  | Nav1.5 % inhibition @ 10 μM [2]: 86% |
| Cc1nc(-c2cc(C(F)(F)F)ccc2[C@H]2CCOc3cc(S(=O)(=O)Nc4cccc(F)n4)ccc32)cs1 [Example 62] | 5 nM |  | Nav1.5 % inhibition @ 10 μM [2]: 42% |
| COCCCOc1cc(C(F)(F)F)ccc1[C@@H]1CCOc2cc(S(=O)(=O)Nc3ncccn3)ccc21 [Example 130, (S&R)-4-(2-(3-methoxypropoxy)-4-(trifluoromethyl)phenyl)-N-(pyrimidin-2-yl)chroman-7-sulfonamide] | 1690 nM | > 10 µM |  |
| COCCOc1cc(C(F)(F)F)ccc1[C@H]1CCOc2cc(S(=O)(=O)Nc3cccnn3)ccc21 (racemic) [Example 128, (R/S)-4-(2-(2-methoxyethoxy)-4-(trifluoromethyl)phenyl)-N-(pyridazin-3-yl)chroman-7-sulfonamide] | 145 nM |  | inhibition at 10 µM [2]: 55% |
| COCCc1cc(C(F)(F)F)ccc1[C@H]1CCOc2cc(S(=O)(=O)Nc3cccnn3)ccc21 (racemic) [Example 139, (R/S)-4-(2-(2-methoxyethyl)-4-(trifluoromethyl)phenyl)-N-(pyridazin-3-yl)chroman-7-sulfonamide] | 33 nM | > 10 µM |  |
| CCCc1cc(C(F)(F)F)ccc1C1CCOc2cc(S(=O)(=O)Nc3cccnn3)ccc21 (centres unmarked) [Example-242] | 1060 nM |  | IC50 ([2]; read-out: Nav1.5 IC50): 3.65 µM |
| COCCOc1cc(C(F)(F)F)ccc1[C@@H]1CCOc2cc(S(=O)(=O)Nc3ncccn3)ccc21 [Example 124, (S&R)-4-(2-(2-methoxyethoxy)-4-(trifluoromethyl)phenyl)-N-(pyrimidin-2-yl)chroman-7-sulfonamide] | 2230 nM |  | Nav1.5 % inhibition @ 10 μM [2]: 71% |
| COCCCCc1cc(C(F)(F)F)ccc1[C@H]1CCOc2cc(S(=O)(=O)Nc3ncccn3)ccc21 [Example 147, (S&R)-4-(2-(4-methoxybutyl)-4-(trifluoromethyl)phenyl)-N-(pyrimidin-2-yl)chroman-7-sulfonamide] | 199 nM |  | Nav1.5 % inhibition @ 10 μM [2]: 60% |
| O=S(=O)(Nc1ccncn1)c1ccc2c(c1)OCC[C@H]2c1ccc(C(F)(F)F)cc1OC1CCOCC1 [Example-172, (R&S)—N-(pyrimidin-4-yl)-4-(2-((tetrahydro-2H-pyran-4-yl)oxy)-4-(trifluoromethyl)phenyl)chroman-7-sulfonamide] | 2740 nM | > 10 µM |  |
| O=C1CCCN1c1cc(C(F)(F)F)ccc1[C@H]1CCOc2cc(S(=O)(=O)Nc3ncccn3)ccc21 (racemic) [Example 115, (R/S)-4-(2-(2-oxopyrrolidin-1-yl)-4-(trifluoromethyl)phenyl)-N-(pyrimidin-2-yl)chroman-7-sulfonamide] | 41 nM | > 10 µM |  |
| O=S(=O)(Nc1cccc(F)n1)c1ccc2c(c1)OCC[C@@H]2c1ccc(C(F)(F)F)cc1CCF (racemic) [Example 157, (R/S)-4-(2-(2-fluoroethyl)-4-(trifluoromethyl)phenyl)-N-(6-fluoropyridin-2-yl)chroman-7-sulfonamide] | 42 nM | > 10 µM |  |
| CC(C)Oc1ccc(-c2cc(C(F)(F)F)ccc2[C@@H]2CCOc3cc(S(=O)(=O)Nc4ncccn4)ccc32)cn1 [Example 97, (S&R)-4-(2-(6-isopropoxypyridin-3-yl)-4-(trifluoromethyl)phenyl)-N-(pyrimidin-2-yl)chroman-7-sulfonamide] | 170 nM |  | Nav1.5 % inhibition @ 10 μM [2]: 71% |
| COCCOc1cc(C(F)(F)F)ccc1[C@H]1CCOc2cc(S(=O)(=O)Nc3ncccn3)ccc21 [Example 125, (S&R)-4-(2-(2-methoxyethoxy)-4-(trifluoromethyl)phenyl)-N-(pyrimidin-2-yl)chroman-7-sulfonamide] | 395 nM |  | IC50 ([2]; read-out: Nav1.5 IC50): 2.64 µM |
| O=S(=O)(Nc1ncc(F)cn1)c1ccc2c(c1)OCC[C@@H]2c1ccc(C(F)(F)F)cc1Cl (racemic) [Example 105, (S/R)-4-(2-Chloro-4-(trifluoromethyl)phenyl)-N-(5-fluoropyrimidin-2-yl)chroman-7-sulfonamide] | 1510 nM | > 10 µM |  |

| SMILES | IC50 [1] | IC50 [2, 3] | other results |
| --- | --- | --- | --- |
| Cc1ccc(NS(=O)(=O)c2ccc3c(c2)OCC[C@H]3c2ccc(C(F)(F)F)cc2-c2ccnn2C)nc1 [Example 21, (S&R)-4-(2-(1-methyl-1H-pyrazol-5-yl)-4-(trifluoromethyl)phenyl)-N-(5-methylpyridin-2-yl)chroman-7-sulfonamide] | 4270 nM |  | Nav1.5 % inhibition @ 10 μM [2]: 57% |
| Cc1nc(-c2cc(C(F)(F)F)ccc2[C@H]2CCOc3cc(S(=O)(=O)Nc4cccnn4)ccc32)ccc1F (racemic) [Example-224, (R/S)-4-(2-(5-fluoro-6-methylpyridin-2-yl)-4-(trifluoromethyl)phenyl)-N-(pyridazin-3-yl)chroman-7-sulfonamide] | 51 nM |  | IC50 ([2]; read-out: Nav1.5 IC50): 2.12 µM |
| O=S(=O)(Nc1cccnn1)c1ccc2c(c1)OCC[C@@H]2c1ccc(C(F)(F)F)cc1-c1ccc(F)nc1 [Example 42, (S&R)-4-(2-(6-Fluoropyridin-3-yl)-4-(trifluoromethyl)phenyl)-N-(pyridazin-3-yl)chromane-7-sulfonamide] | 0.2 nM |  | IC50 ([2]; read-out: Nav1.5 IC50): 0.644 µM |
| O=S(=O)(Nc1cccc(F)n1)c1ccc2c(c1)OCC[C@H]2c1ccc(C(F)(F)F)cc1-n1cccn1 [Example 89, (S&R)-4-(2-(1H-pyrazol-1-yl)-4-(trifluoromethyl)phenyl)-N-(6-fluoropyridin-2-yl)chroman-7-sulfonamide] | 108 nM | > 10 µM |  |
| O=S(=O)(Nc1cccnn1)c1ccc2c(c1)OCC[C@@H]2c1ccc(C(F)(F)F)cc1-c1ccc(F)cn1 [Example-200, (S&R)-4-(2-(5-fluoropyridin-2-yl)-4-(trifluoromethyl)phenyl)-N-(pyridazin-3-yl)chroman-7-sulfonamide] | 0.5 nM | > 10 µM |  |
| CCCc1cc(C(F)(F)F)ccc1[C@@H]1CCOc2cc(S(=O)(=O)Nc3ncc(F)cn3)ccc21 [Example-240, (S&R)—N-(5-fluoropyrimidin-2-yl)-4-(2-propyl-4-(trifluoromethyl)phenyl)chroman-7-sulfonamide] | 2740 nM | > 10 µM |  |
| COCCCOc1cc(C(F)(F)F)ccc1[C@H]1CCOc2cc(S(=O)(=O)Nc3ncc(F)cn3)ccc21 (racemic) [Example 132, (R/S)—N-(5-fluoropyrimidin-2-yl)-4-(2-(3-methoxypropoxy)-4-(trifluoromethyl)phenyl)chroman-7-sulfonamide] | 163 nM | > 10 µM |  |
| O=S(=O)(Nc1ncccn1)c1ccc2c(c1)OCC[C@H]2c1ccc(C(F)(F)F)cc1C1CCOCC1 [Example 109, (S&R)—N-(pyrimidin-2-yl)-4-(2-(tetrahydro-2H-pyran-4-yl)-4-(trifluoromethyl)phenyl)chroman-7-sulfonamide] | 740 nM | > 10 µM |  |
| COCCc1cc(C(F)(F)F)ccc1[C@H]1CCOc2cc(S(=O)(=O)Nc3ccncn3)ccc21 (racemic) [Example 138, (R/S)-4-(2-(2-methoxyethyl)-4-(trifluoromethyl)phenyl)-N-(pyrimidin-4-yl)chroman-7-sulfonamide] | 588 nM | > 10 µM |  |
| O=S(=O)(Nc1cccnn1)c1ccc2c(c1)OCC[C@@H]2c1ccc(C(F)(F)F)cc1-n1ccnn1 [Example 54, (S&R)-4-(2-(1H-1,2,3-Triazol-1-yl)-4-(trifluoromethyl)phenyl)-N-(pyridazin-3-yl)chromane-7-sulfonamide] | 706 nM | > 10 µM |  |
| COCCOc1cc(C(F)(F)F)ccc1[C@H]1CCOc2cc(S(=O)(=O)Nc3cccc(F)n3)ccc21 (racemic) [Example 129, (R/S)—N-(6-fluoropyridin-2-yl)-4-(2-(2-methoxyethoxy)-4-(trifluoromethyl)phenyl)chroman-7-sulfonamide] | 16 nM |  | inhibition at 10 µM [2]: 62% |
| Cc1ccnc(NS(=O)(=O)c2ccc3c(c2)OCC[C@H]3c2ccc(C(F)(F)F)cc2-c2ccnn2C)n1 [Example 29, (S&R)-4-(2-(1-methyl-1H-pyrazol-5-yl)-4-(trifluoromethyl)phenyl)-N-(4-methylpyrimidin-2-yl)chroman-7-sulfonamide] |  | > 10 µM | Nav1.7 inhibition @ 10 μM ([1]; 10 μM): 91% |
| CCCc1cc(C(F)(F)F)ccc1[C@H]1CCOc2cc(S(=O)(=O)Nc3ncc(F)cn3)ccc21 [Example-241, (S&R)—N-(5-fluoropyrimidin-2-yl)-4-(2-propyl-4-(trifluoromethyl)phenyl)chroman-7-sulfonamide] | 172 nM | > 10 µM |  |
| O=S(=O)(Nc1cccc(F)n1)c1ccc2c(c1)OCC[C@H]2c1ccc(C(F)(F)F)cc1OC1CCOCC1 [Example-176, (R&S)—N-(6-fluoropyridin-2-yl)-4-(2-((tetrahydro-2H-pyran-4-yl)oxy)-4-(trifluoromethyl)phenyl)chroman-7-sulfonamide] | 1310 nM |  | Nav1.5 % inhibition @ 10 μM [2]: 57% |
| COc1cc(C(F)(F)F)ccc1[C@H]1CCOc2cc(S(=O)(=O)Nc3ncccn3)ccc21 [Example-227, (S&R)-4-(2-methoxy-4-(trifluoromethyl)phenyl)-N-(pyrimidin-2-yl)chroman-7-sulfonamide] | 177 nM | > 10 µM |  |
